Source: ChEMBL document CHEMBL2218064, “Structure-activity relationship data for chemical series of antagonists of the P2X7 receptor (Supplementary Bioactivity Data for publication CHEMBL1157114)”

What follows are compounds tested against T1, P2X purinoceptor 7 (Homo sapiens, UniProt Q99572) (assay: SUPPLEMENTARY: Inhibition of human P2X7 receptor assessed as inhibition of ethidium bromide accumulation. Same assay as CHEMBL1103860).
T1 sequence (Q99572 whole entry): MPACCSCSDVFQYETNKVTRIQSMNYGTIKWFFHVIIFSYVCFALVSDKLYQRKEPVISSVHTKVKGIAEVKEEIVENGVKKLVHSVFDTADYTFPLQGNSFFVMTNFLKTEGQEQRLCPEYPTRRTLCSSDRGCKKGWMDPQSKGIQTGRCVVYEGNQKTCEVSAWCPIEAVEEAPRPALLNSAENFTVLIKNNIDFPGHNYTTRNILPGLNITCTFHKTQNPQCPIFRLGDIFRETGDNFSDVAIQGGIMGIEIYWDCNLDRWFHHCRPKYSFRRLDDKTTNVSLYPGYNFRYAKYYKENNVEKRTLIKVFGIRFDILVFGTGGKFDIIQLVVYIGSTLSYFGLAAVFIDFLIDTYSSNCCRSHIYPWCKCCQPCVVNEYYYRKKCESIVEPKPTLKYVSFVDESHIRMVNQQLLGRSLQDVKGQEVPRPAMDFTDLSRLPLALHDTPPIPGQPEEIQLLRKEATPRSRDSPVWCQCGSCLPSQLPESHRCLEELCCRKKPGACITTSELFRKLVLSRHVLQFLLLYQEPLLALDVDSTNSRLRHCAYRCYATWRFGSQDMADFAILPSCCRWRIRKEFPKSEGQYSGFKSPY

| IC50 | Compound |
| --- | --- |
| 158 nM | O=C(NCc1ccc(Cl)cc1Cl)C1CC(=O)N(Cc2ccccc2)C1 (stereo not given) |
| 79.4 nM | CC(C)CN1CC(C(=O)NCc2ccc(Cl)cc2Cl)CC1=O (stereo not given) |
| 794 nM | CN1[C@H](C(=O)NCc2ccccc2Cl)CCS1(=O)=O |
| 50.1 nM | CCN1C(=O)C(C)(C)C[C@H]1C(=O)NCc1ccc(F)cc1Cl |
| 2 nM | CC(C)N1C(=O)CC[C@H]1C(=O)NCc1cccc(C(F)(F)F)c1Cl |
| 3.98 nM | Cc1c(CNC(=O)[C@@H]2CCC(=O)N2C(C)C)cccc1C(F)(F)F |
| 20 nM | CC(C)N1C(=O)CC[C@H]1C(=O)NCc1cccc(Cl)c1Cl |
| 20 nM | CC(C)N1C(=O)CC[C@H]1C(=O)NCc1ccc(F)c(F)c1Cl |
| 7.94 nM | CC(C)N1C(=O)CC[C@H]1C(=O)NCc1ccc(Cl)cc1Cl |
| 158 nM | CN1CC(C(=O)NCc2ccc(Cl)cc2Cl)CC1=O (stereo not given) |
| 126 nM | CCN1CC(C(=O)NCc2ccc(Cl)cc2Cl)CC1=O (stereo not given) |
| 50.1 nM | CCN1CC(C(=O)NCc2cccc(C(F)(F)F)c2Cl)CC1=O (stereo not given) |
| 63.1 nM | CC(C)CN1CC(C(=O)NCc2cccc(C(F)(F)F)c2Cl)CC1=O (stereo not given) |
| 126 nM | O=C(NCc1ccc(Cl)cc1Cl)C1CC(=O)N(C2CC2)C1 (stereo not given) |
| 31.6 nM | O=C(NCc1cccc(C(F)(F)F)c1Cl)C1CC(=O)N(C2CC2)C1 (stereo not given) |
| 50.1 nM | CN1C(=O)OC[C@@H]1C(=O)NCc1cccc(C(F)(F)F)c1Cl |
| 200 nM | CCN1[C@H](C(=O)NCc2ccc(Cl)cc2Cl)CCCS1(=O)=O |
| 631 nM | CCN1[C@H](C(=O)NCc2ccc(F)cc2Cl)CCCS1(=O)=O |
| 251 nM | CN1[C@H](C(=O)NCc2ccc(Cl)cc2Cl)CCCS1(=O)=O |
| 316 nM | O=C(NCc1cccc(C(F)(F)F)c1Cl)C1CC(=O)N(Cc2ccccc2)C1 (stereo not given) |
| 15.8 nM | Cc1c(Cl)cccc1CNC(=O)[C@@H]1CCC(=O)N1C1CCC1 |
| 631 nM | O=C1C(=O)N(c2cccc3ccccc23)CCN1Cc1c(F)cccc1Cl |
| 63.1 nM | O=C1C(=O)N(c2cccc3ccccc23)CCN1Cc1ccc(F)cc1Cl |
| 2 nM | O=C(NCc1cccc(C(F)(F)F)c1Cl)[C@@H]1CCC(=O)N1C1CCC1 |
| 5.01 nM | O=C(NCc1ccc(Cl)cc1Cl)[C@@H]1CCC(=O)N1C1CCC1 |
| 10 nM | O=C(NCc1ccc(F)c(F)c1Cl)[C@@H]1CCC(=O)N1C1CCC1 |
| 12.6 nM | O=C(NCc1cccc(Cl)c1Cl)[C@@H]1CCC(=O)N1C1CCC1 |

| IC50 | Compound |
| --- | --- |
| 3.16 nM | Cc1c(CNC(=O)[C@@H]2CCC(=O)N2C2CCC2)cccc1C(F)(F)F |
| 631 nM | CCN1[C@H](C(=O)NCc2ccc(F)c(F)c2F)CCCS1(=O)=O |
| 158 nM | CC(C)CN1[C@H](C(=O)NCc2ccc(Cl)cc2Cl)CCS1(=O)=O |
| 501 nM | CC(C)CN1[C@H](C(=O)NCc2ccc(F)cc2Cl)CCS1(=O)=O |
| 3.16 nM | CN1C[C@@H](C(=O)NCc2ccc(F)c(F)c2Cl)N(C)C1=O |
| 63.1 nM | O=C(NCc1ccc(Cl)cc1Cl)[C@H]1CCC(=O)N1Cc1cccnc1 |
| 50.1 nM | O=C(NCc1cccc(C(F)(F)F)c1Cl)[C@H]1CCC(=O)N1Cc1cccnc1 |
| 31.6 nM | Cc1cnn(C)c1CC(=O)NCc1ccc(F)c(F)c1Cl |
| 50.1 nM | O=C1C(=O)N(c2cccc3c2CCCC3)CCN1Cc1ccc(F)cc1Cl |
| 251 nM | O=C1C(=O)N(c2cccc(N3CCOCC3)c2)CCN1Cc1ccc(F)cc1Cl |
| 126 nM | O=C1C(=O)N(c2ccccc2N2CCOCC2)CCN1Cc1ccc(F)cc1Cl |
| 3.16 nM | CN1C(=O)N(c2ncccn2)CC1C(=O)NCc1cccc(C(F)(F)F)c1Cl (stereo not given) |
| 631 nM | CCN1C(=O)CC[C@H]1C(=O)NCc1ccccc1C#N |
| 3.16 nM | CCN1C(=O)CC[C@H]1C(=O)NCc1cccc(C(F)(F)F)c1C#N |
| 100 nM | C[C@H]1CC(=O)N(C)[C@@H]1C(=O)NCc1cccc(C(F)(F)F)c1Cl |
| 15.8 nM | C[C@@H]1CC(=O)N(C)[C@@H]1C(=O)NCc1cccc(C(F)(F)F)c1Cl |
| 50.1 nM | CN1C(=O)CC[C@@H]1C(=O)NCc1ccc(Cl)cc1Cl |
| 158 nM | CC(C)(C)CN1C(=O)CC[C@@H]1C(=O)NCc1cccc(C(F)(F)F)c1Cl |
| 501 nM | CC(C)N1[C@H](C(=O)NCc2ccc(Cl)cc2Cl)CCCS1(=O)=O |
| 631 nM | Cc1c(Cl)cccc1CNC(=O)[C@@H]1CCCS(=O)(=O)N1C(C)C |
| 126 nM | CN1[C@H](C(=O)NCc2ccc(F)cc2Cl)CCS1(=O)=O |
| 63.1 nM | O=C(NCc1cccc(C(F)(F)F)c1Cl)[C@H]1CCC(=O)N1Cc1ccccn1 |
| 398 nM | Cc1cccc(Cl)c1CNC(=O)[C@@H]1CCS(=O)(=O)N1C |
| 31.6 nM | CN1[C@H](C(=O)NCc2ccc(Cl)cc2Cl)CCS1(=O)=O |
| 7.94 nM | CN1C[C@@H](C(=O)NCc2cccc(C(F)(F)F)c2F)N(C)C1=O |
| 31.6 nM | CN1C[C@@H](C(=O)NCc2ccc(F)c(F)c2F)N(C)C1=O |
| 50.1 nM | CN1C[C@@H](C(=O)NCc2ccc(F)cc2C(F)(F)F)N(C)C1=O |

| IC50 | Compound |
| --- | --- |
| 10 nM | CN1C[C@@H](C(=O)NCc2ccc(F)cc2Cl)N(C)C1=O |
| 501 nM | CCN1[C@H](C(=O)NCc2ccccc2Cl)CCS1(=O)=O |
| 631 nM | CC(C)N1[C@H](C(=O)NCc2ccc(F)cc2C(F)(F)F)CCS1(=O)=O |
| 398 nM | CN1[C@H](C(=O)NCc2ccc(F)cc2C(F)(F)F)CCS1(=O)=O |
| 50.1 nM | Cc1cnn(CC(F)(F)F)c1CC(=O)NCc1ccc(F)c(F)c1Cl |
| 3.16 nM | CN1C(=O)CC[C@H]1C(=O)NCc1ccc(F)c(C(F)(F)F)c1Cl |
| 251 nM | CCN1[C@H](C(=O)NCc2ccc(F)c(F)c2F)CCS1(=O)=O |
| 100 nM | Cc1c(Cl)cccc1CNC(=O)[C@@H]1CCS(=O)(=O)N1C |
| 251 nM | Cc1c(Cl)cccc1CNC(=O)[C@@H]1CCS(=O)(=O)N1C(C)C |
| 50.1 nM | CCN1[C@H](C(=O)NCc2cccc(Cl)c2C)CCS1(=O)=O |
| 126 nM | CCN1[C@H](C(=O)NCc2ccc(F)cc2C(F)(F)F)CCS1(=O)=O |
| 200 nM | CC(C)N1[C@H](C(=O)NCc2ccc(F)cc2Cl)CCS1(=O)=O |
| 501 nM | CC(C)N1[C@H](C(=O)NCc2ccc(F)c(F)c2F)CCS1(=O)=O |
| 15.8 nM | CCN1[C@H](C(=O)NCc2ccc(Cl)cc2Cl)CCS1(=O)=O |
| 50.1 nM | CC(C)N1[C@H](C(=O)NCc2ccc(Cl)cc2Cl)CCS1(=O)=O |
| 25.1 nM | CC1CC(=O)N(C)[C@@H]1C(=O)NCc1cccc(C(F)(F)F)c1Cl (stereo not given in full) |
| 126 nM | CCN1C(=O)[C@@H](Cc2ccccc2)C[C@H]1C(=O)NCc1ccc(F)cc1Cl |
| 15.8 nM | CN1[C@H](C(=O)NCc2cccc(C(F)(F)F)c2Cl)CCS1(=O)=O |
| 79.4 nM | CN1[C@H](C(=O)NCc2ccc(F)c(F)c2Cl)CCS1(=O)=O |
| 31.6 nM | CCN1C(=O)[C@H](Cc2ccccc2)C[C@H]1C(=O)NCc1cccc(C(F)(F)F)c1Cl |
| 79.4 nM | CCN1[C@H](C(=O)NCc2ccc(F)c(F)c2Cl)CCS1(=O)=O |
| 10 nM | CCN1[C@H](C(=O)NCc2cccc(C(F)(F)F)c2Cl)CCS1(=O)=O |
| 6.31 nM | CN1C(=O)CC[C@H]1C(=O)NCc1cccc(C(F)(F)F)c1C#N |
| 25.1 nM | Cn1nccc1CC(=O)NCc1cccc(C(F)(F)F)c1Cl |
| 5.01 nM | CCN1C(=O)C(C)(C)C[C@H]1C(=O)NCc1cccc(C(F)(F)F)c1Cl |
| 39.8 nM | CCN1C(=O)C(C)(C)C[C@H]1C(=O)NCc1ccc(F)c(F)c1Cl |
| 79.4 nM | CN1C(=O)N(Cc2ccccn2)CC1C(=O)NCc1ccc(F)c(F)c1Cl (stereo not given) |

| IC50 | Compound |
| --- | --- |
| 398 nM | O=C1C(=O)N(c2ccccc2)CCN1Cc1ccc(F)cc1Cl |
| 10 nM | Cc1ccccc1N1CCN(Cc2ccc(Cl)cc2Cl)C(=O)C1=O |
| 100 nM | O=C(c1ccc(F)cc1Cl)N1CCN(c2cccc3ccccc23)C(=O)C1 |
| 126 nM | O=C1C(=O)N(c2ccccc2F)CCN1Cc1ccc(F)cc1Cl |
| 5.01 nM | Cc1cccc(N2CCN(Cc3ccc(F)cc3Cl)C(=O)C2=O)c1C |
| 50.1 nM | COc1ccccc1N1CCN(Cc2ccc(F)cc2Cl)C(=O)C1=O |
| 158 nM | Cc1cccc(N2CCN(Cc3ccc(F)cc3Cl)C(=O)C2=O)c1 |
| 158 nM | COc1cccc(N2CCN(Cc3ccc(F)cc3Cl)C(=O)C2=O)c1 |
| 20 nM | O=C1C(=O)N(c2ccccc2Cl)CCN1Cc1ccc(F)cc1Cl |
| 50.1 nM | Cc1ccccc1N1CCN(Cc2ccc(F)cc2Cl)C(=O)C1=O |
| 126 nM | Cc1ccccc1N1CCN(Cc2ccccc2Cl)C(=O)C1=O |
| 1000 nM | Cc1ccccc1N1CCN(Cc2ccccc2F)C(=O)C1=O |
| 251 nM | Cc1ccccc1N1CCN(Cc2ccc(F)c(F)c2F)C(=O)C1=O |
| 251 nM | Cn1nccc1CC(=O)NCc1ccc(F)cc1Cl |
| 158 nM | Cn1nccc1CC(=O)NCc1ccc(F)c(F)c1Cl |
| 126 nM | Cn1nccc1CC(=O)NCc1ccc(Cl)cc1Cl |
| 31.6 nM | Cn1ncc(Cl)c1CC(=O)NCc1ccc(F)c(F)c1Cl |
| 12.6 nM | Cn1ncc(Cl)c1CC(=O)NCc1ccc(Cl)cc1Cl |
| 25.1 nM | Cc1ccccc1N1CCN(Cc2cccc(Cl)c2Cl)C(=O)C1=O |
| 126 nM | Cn1ncc(F)c1CC(=O)NCc1ccc(F)cc1Cl |
| 100 nM | Cn1ncc(F)c1CC(=O)NCc1ccc(F)c(F)c1Cl |
| 50.1 nM | Cn1ncc(F)c1CC(=O)NCc1ccc(Cl)cc1Cl |
| 126 nM | Cc1ccccc1N1CCN(Cc2ccc(F)cc2C(F)(F)F)C(=O)C1=O |
| 39.8 nM | Cc1ccccc1N1CCN(Cc2cccc(C(F)(F)F)c2Cl)C(=O)C1=O |
